This note sets out measurements from ChEMBL document CHEMBL5096199, “Structure-Based Optimization of Small Molecule Human Galactokinase Inhibitors” (J Med Chem, 2021).

Values after ≈ are worked out from the molar mass of the structure shown.

Data set [1] has as its target Galactokinase (Homo sapiens, UniProt P51570). Nature of the data set: Inhibition of recombinant human GALK1 using galactose as substrate incubated for 1 hrs in the presence of ATP by Kinase-Glo reagent based luminescence assay.
Data set [2] can be described thus: Permeability of the compound at pH 7.4 measured after 30 mins by PAMPA based LC/MS analysis. It counts as ADME. As to conditions: PAMPA, pH 7.4, read-out: permeability.
Data set [3] is described as follows: Metabolic stability in mouse liver microsome assessed as half life. As to conditions: microsomes. The data set is classed as ADME.
A short description of data set [4]: Metabolic stability in human liver microsomes assessed as half life. It counts as ADME, Microsome.
Data set [5] is described as follows: physchem. As to conditions: phosphate buffer, pH 7.4.
Description: Kinetic solubility of the compound in phosphate buffer at pH 7.4 at 150 uM incubated for 6 hrs by shake-flask method

Chain of Galactokinase (P51570 whole entry): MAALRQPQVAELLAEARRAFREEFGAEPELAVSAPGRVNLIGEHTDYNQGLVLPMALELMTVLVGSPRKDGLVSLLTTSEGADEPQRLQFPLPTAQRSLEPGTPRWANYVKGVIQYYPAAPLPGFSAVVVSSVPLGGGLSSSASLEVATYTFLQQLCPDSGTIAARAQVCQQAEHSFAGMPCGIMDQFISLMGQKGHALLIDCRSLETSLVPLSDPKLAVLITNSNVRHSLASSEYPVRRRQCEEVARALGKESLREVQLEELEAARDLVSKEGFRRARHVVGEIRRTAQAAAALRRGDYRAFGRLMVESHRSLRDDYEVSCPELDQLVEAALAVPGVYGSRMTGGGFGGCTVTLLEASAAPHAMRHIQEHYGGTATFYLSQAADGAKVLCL

As to `CC1=C(C(=O)Nc2cc(C(=O)O)ccn2)C(c2ccccc2Cl)N=C(Nc2nc3cc(Cl)ccc3o2)N1` (stereo not drawn), in data set [1] (read-out: pIC50 (converted)), the IC50 is 2.63 µM.

As to `CC1=C(C(=O)Nc2cc(C(=O)O)ccn2)C(c2ccc(N3CCOCC3)cc2Cl)N=C(Nc2nc3ccc(F)cc3o2)N1` (stereo not drawn), the IC50 in data set [1] (read-out: pIC50 (converted)) was 0.447 µM.

Consider `CC1=C(C(=O)Nc2cc(C(=O)O)ccn2)C(c2ccccc2Cl)N=C(Nc2nc3cc(N)ccc3o2)N1` (stereo not drawn), for which the IC50 in data set [1] (read-out: pIC50 (converted)) is 7.41 µM.

As to `CC1=C(C(=O)Nc2cccc(F)c2)C(c2ccccc2Cl)N=C(Nc2nc3ccccc3o2)N1` (stereo not drawn), the IC50 in data set [1] (read-out: pIC50 (converted)) was 6.61 µM.

`CCn1cc(CNC(=O)C2=C(C)NC(Nc3nc4ccc(F)c(N)c4o3)=NC2c2ccc(C)cc2Cl)cn1` (racemic): the IC50 in data set [1] (read-out: IC50) amounted to 0.048 µM. In addition, the Papp at 0.5 h in data set [2] is 410 ×10⁻⁶ cm/s. Further, the t1/2 is reported as 14 min in data set [3] and 8 min in data set [4]. In addition, in data set [5], the kinetic solubility at 6 h, 150 µM was < 1 µg/mL.

Turning to `CCn1cc(CNC(=O)C2=C(C)NC(Nc3nc4ccc(F)c(N)c4o3)=N[C@H]2c2ccc(C)cc2Cl)cn1`, in data set [1] (read-out: IC50), the IC50 is 0.068 µM. In addition, the Papp at 0.5 h in data set [2] is 773 ×10⁻⁶ cm/s. Besides, the t1/2 in data set [3] was 7 min; in data set [4], 12 min. Further, the kinetic solubility at 6 h, 150 µM in data set [5] was < 1 µg/mL.

Regarding `CC1=C(C(=O)Nc2cc(C(=O)O)ccn2)C(c2ccc(Cl)cc2Cl)N=C(Nc2nc3ccc(F)cc3o2)N1` (stereo not drawn), the IC50 in data set [1] (read-out: pIC50 (converted)) is 1.05 µM.

Turning to `CC1=C(C(=O)NCc2ccc(CO)cc2)C(c2ccccc2Cl)N=C(Nc2nc3ccccc3o2)N1` (stereo not drawn), in data set [1] (read-out: pIC50 (converted)), the IC50 was 6.61 µM.

With `CCn1cc(CNC(=O)C2=C(C)NC(Nc3nc4cccc(N)c4o3)=NC2c2ccc(C)cc2Cl)cn1` (racemic), the Papp at 0.5 h in data set [2] worked out at 632 ×10⁻⁶ cm/s. Further, the t1/2 in data set [4] turned out to be 120 min. This compound also showed a kinetic solubility at 6 h, 150 µM in data set [5] of 2.4 µg/mL (≈ 4.62 µM).

`CC1=C(C(=O)NCc2ccc(C(=O)O)cc2)C(c2ccccc2Cl)N=C(Nc2nc3ccccc3o2)N1` (stereo not drawn): the IC50 in data set [1] (read-out: pIC50 (converted)) is 3.72 µM.

On to `CC1=C(C(=O)Nc2cc(C(=O)O)ccn2)C(c2ccccc2Cl)N=C(Nc2nc3cccc(F)c3o2)N1` (stereo not drawn), for which, in data set [1] (read-out: pIC50 (converted)), the IC50 was 1.78 µM.

Take `CC1=C(C(=O)Nc2ccc(O)cc2)C(c2ccccc2Cl)N=C(Nc2nc3ccccc3o2)N1` (stereo not drawn): the IC50 in data set [1] (read-out: pIC50 (converted)) was 3.72 µM.

As for `COc1ccc2nc(NC3=NC(c4ccccc4Cl)C(C(=O)Nc4cc(C(=O)O)ccn4)=C(C)N3)oc2c1` (stereo not drawn), the IC50 in data set [1] (read-out: pIC50 (converted)) was 19.5 µM.

Consider `CC1=C(C(=O)Nc2cc(C(=O)O)ccn2)C(c2ccccc2Cl)N=C(Nc2nc3c(N)cccc3o2)N1` (stereo not drawn), for which, in data set [1] (read-out: pIC50 (converted)), the IC50 is 19.5 µM.

On to `CC1=C(C(=O)Nc2cc(C(=O)O)ccn2)C(c2ccccc2Br)N=C(Nc2nc3ccc(F)cc3o2)N1` (stereo not drawn), for which the IC50 in data set [1] (read-out: pIC50 (converted)) was 0.562 µM.

For `CC1=C(C(=O)Nc2cc(C(=O)O)ccn2)C(c2ccccc2Cl)N=C(Nc2nc3c(C)cccc3o2)N1` (stereo not drawn), in data set [1] (read-out: pIC50 (converted)), the IC50 is 9.33 µM.

As for `CC1=C(C(=O)NCc2cnn(C)c2)[C@H](c2ccc(C)cc2Cl)N=C(Nc2nc3cccc(N)c3o2)N1`, the IC50 in data set [1] (read-out: pIC50 (converted)) is 0.12 µM. Further, the Papp at 0.5 h in data set [2] was 661 ×10⁻⁶ cm/s. For the same compound, the t1/2 in data set [3] is 7 min; in data set [4], 37 min. Moreover, the solubility (kinetic) at 6 h, 150 µM in data set [5] stood at 17 µg/mL (≈ 33.7 µM).

Regarding `CC1=C(C(=O)Nc2cccnc2)C(c2ccccc2Cl)N=C(Nc2nc3ccccc3o2)N1` (stereo not drawn), the IC50 in data set [1] (read-out: pIC50 (converted)) was 6.61 µM.

In the case of `CC1=C(C(=O)Nc2cccc(C(=O)O)c2)C(c2ccccc2Cl)N=C(Nc2nc3ccccc3o2)N1` (stereo not drawn), the IC50 in data set [1] (read-out: pIC50 (converted)) was 2.63 µM.
